Earlier results, collected in patent US20040096453A1, “Methods and compositions to treat glycosaminoglycan-associated molecular interactions” (Neurochem (International) Limited, priority 1998, published 2004).

Test system: two streptococcal proteins (9,15 Kda)
Conditions: basement membranes of cardiac muscle and renal tissues; Bergey & Stenson

heparin
inhibition of binding of streptococcal proteins to basement membranes: completely inhibited
